Drawing on PubChem BioAssay (NCI), this text covers TGI and GI50 for 14 compounds.

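Protocol summary: plate cells (96-well), add compound at 5 concentrations, incubate 48 h, interpolate endpoints linearly. Abbreviation: GI50, concentration required for 50% inhibition of growth. The concentration for full growth arrest is given as TGI.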 Where only a bound is given, the exact number is not on record here.

Holding throughout (test): NCI anticancer screen, dose series, 48 h
For test [1], the system named is UACC-62 melanoma.
For test [2], the system named is U251 CNS.
Test [3] deals with A498 renal.
Test [4] deals with HOP-18 NSCLC.
Test [5] has as its system SF-539 CNS.
Test [6] concerns LXFL 529 NSCLC.
In test [7] the test system is K-562 leukemia.
Test [8] has as its system SW-620 colon.
In test [9] the test system is NCI/ADR-RES ovarian.
Test [10] relates to MDA-MB-231 breast.

Consider `O=c1nc(N2CCCC2)nc(N2CCCC2)s1`, for which the TGI in test [1], in test [2], in test [3], in [4], in test [5] and in [6] was more than 100 µM in each case. Besides, the TGI in [7] and in test [8] was more than 100 µM throughout.

For `OCCCc1cnco1`, the TGI in test [1], in [2], in [3], in test [4], in test [5] and in test [6] was more than 100 µM each time. The TGI in test [7] and in test [8] was more than 100 µM in each case.

In the case of `C=C1C(=O)c2cc3c(cc2C(c2cc(OC)c(OC)c(OC)c2)[C@@H]1C(=O)O)OCO3` (some centres not stated), the TGI in test [1], in test [2], in test [3], in [4], in test [5] and in test [6] was more than 100 µM throughout. Besides, the TGI in test [7] and in test [8] was more than 100 µM throughout.

For `O=C(Cc1ccccc1)N/N=C(/c1nc2ccc([N+](=O)[O-])cc2[nH]c1=O)C(O)c1ccccc1Cl` (configuration not stated), the TGI in [1], in [2], in test [3], in test [4], in [5] and in [6] was more than 100 µM in each case. Also, the TGI in [7] and in test [8] was more than 100 µM throughout.

With `NC(CO)c1ccc(OCc2ccccc2)cc1` (configuration not stated), the TGI in [1], in [2], in [3], in test [4], in test [5] and in test [6] was more than 100 µM in each case. Also, the TGI in [7] and in test [8] was more than 100 µM in each case.

With `CN(C)c1ccc(/C=c2\sc3nnc(-c4cccnc4)n3c2=O)cc1`, the TGI in test [1], in [2], in test [3], in [4], in test [5] and in test [6] was more than 100 µM throughout. Further, the TGI in [7] and in test [8] was more than 100 µM in each case.

On to `O=C(O)c1ccc(C(=O)O)c(C(=O)O)c1.[NH-]C1CCCCC1[NH-].[Pt+2]`, for which the GI50 in test [1] is 2.82 µM; in test [2] it was 8.84 µM; in test [9] it was 3.56 µM; in test [3] it was 6.28 µM; in test [10], 16.7 µM; in [4], 11.8 µM. Besides, the GI50 in [5] was 4.29 µM; in test [6], 5.94 µM; in test [8], 0.43 µM. Also, the TGI was 36 µM in test [1]; 59.1 µM in [2]; 60.5 µM in test [9]; 45.1 µM in test [3]; more than 73.6 µM in [10]; 84.6 µM in [4]. Besides, the TGI in test [5] was 43.5 µM; in test [6], more than 100 µM; in [7], 88.9 µM; in test [8], 57.9 µM.

`CCc1cccc(CC)c1NC(=O)CC1SC(N)=NC1=O` (configuration not stated): the TGI in test [1], in test [2], in [3], in test [4], in test [5] and in [6] was more than 100 µM in each case. For the same compound, the TGI in test [7] and in [8] was more than 100 µM in each case.

On to `CC(=O)CC(=O)NC=O`, for which the TGI in test [1], in test [2], in test [3], in [4], in [5] and in [6] was more than 100 µM in each case. Also, the TGI in [7] and in test [8] was more than 100 µM in each case.

Turning to `Cc1ccc(NC(=O)/C(=N\NC(N)=S)C(C#N)c2ccccc2C)cc1C` (configuration not stated), the TGI in test [1], in [2], in test [3], in test [4], in [5] and in [6] was more than 100 µM each time. For the same compound, the TGI in [7] and in [8] was more than 100 µM throughout.

With `N#Cc1c(-c2ccccc2)cc(-c2cccs2)c(C#N)c1N`, the TGI is more than 100 µM in test [2]; more than 100 µM in [3]; 0.0879 µM in test [4]; more than 100 µM in test [5]; more than 100 µM in [6]; more than 100 µM in test [7]. The same compound registered a TGI in test [8] of more than 100 µM.

Take `O=c1c(O)cc2c(O)oc3c(=O)c(O)c(O)c4c(O)oc1c2c43`: the TGI in test [1] was more than 100 µM; in [2], 34.3 µM; in test [3], more than 100 µM; in test [4], more than 100 µM; in [5], more than 100 µM; in [6], more than 100 µM. The TGI in [7] is 57.9 µM; in test [8], more than 100 µM.

As to `Fc1ccc(C2SCc3nc4ccccc4n32)cc1F` (configuration not stated), the TGI in test [1], in [2], in test [3], in test [4], in test [5] and in test [6] was more than 100 µM throughout. Further, the TGI in [7] and in test [8] was more than 100 µM in each case.

With `N#CC(/C(=N/NC(N)=S)C(=O)Nc1cccc(Cl)c1)c1ccccc1` (configuration not stated), the TGI in test [1], in [2], in [3], in test [4], in test [5] and in test [6] was more than 100 µM in each case. The TGI in [7] and in test [8] was more than 100 µM throughout.
